Drawing on BindingDB's records for PubMed 39892094 (University of Lubeck and University Medical Center …), this text covers IC50 and EC50 for 4 compounds.

Data set [1] in a line: Inhibition of MCT-1 in human A549 cells assessed as potentiation of 3-BP-mediated cytotoxicity by measuring decrease in cell viability incubated for 72 hrs in presence of 3-BP by MTT assay. (In general: Tetrazolium dyes change colour on reduction, which living cells bring about.)
The nature of data set [2]: Reversal of ABCB1-mediated multidrug resistance in human A2780 ADR cells assessed as increase in doxorubicin-mediated cytotoxicity incubated for 72 hrs in presence of doxorubicin by MTT assay.
Data set [3] is described as follows: Reversal of ABCC1-mediated multidrug resistance in human NCI-H69AR cells assessed as increase in doxorubicin-mediated cytotoxicity incubated for 72 hrs in presence of doxorubicin by MTT assay.
Data set [4] in a line: Reversal of ABCG2 (unknown origin)-mediated multidrug resistance transfected in dog MDCK-II-BCRP cells assessed as increase in SN-38-mediated cytotoxicity incubated for 72 hrs in presence of SN-38 by MTT assay.

Usually IC50 stands for the concentration needed to halve the response being measured. In general, EC50 refers to the midpoint of the concentration-response curve. As for `O=C(Cn1nc(C(=O)Nc2ccccn2)c2ccccc21)Nc1cc(Cl)ccc1Cl`, the IC50 in data set [1] amounted to 1.89 µM. Also, the concentration giving a half-maximal response (EC50) turned out to be 0.089 µM in data set [2], 33.1 µM in data set [3] and 0.326 µM in data set [4].
Turning to `O=C(Cn1nc(C(=O)Nc2cccnc2)c2ccccc21)Nc1ccc(Cl)cc1`, the half-inhibitory concentration (IC50) in data set [1] amounted to 3.32 µM. For the same compound, the EC50 came out at 4.67 µM in data set [2], 6.86 µM in data set [3] and 1.05 µM in data set [4].
In the case of `COc1cccc(NC(=O)c2nn(CC(=O)Nc3ccccc3OC)c3ccccc23)c1`, the values for the EC50 in data set [2], in data set [3] and in data set [4] were 3.34 µM, 5.53 µM and 0.603 µM, respectively.
On to `COc1cccc(NC(=O)Cn2nc(C(=O)Nc3cccc(OC)c3)c3ccccc32)c1`, for which the EC50 in data set [2] came out at 2.01 µM; in data set [3], 8.55 µM.
